Experimental data reported in PMC8370201, “Amaryllidaceae Alkaloid Cherylline Inhibits the Replication of Dengue and Zika Viruses” (Antimicrobial Agents and Chemotherapy, 2021).
Entries after “also recorded” stand apart in the source; their conditions may differ. Read-outs that look alike come from different tables or passages of the source.

Experiments:
[1] = system: ZIKVR2A; test: microbe, parasite or virus in culture; conditions: Zika virus, Huh7.5, read-out: EC50 (μM) for ZIKVR2A, Huh7.5 cells, luciferase at 48 hpi
[2] = system: ZIKV MR766; test: Plaque assay, infectious titers of WT ZIKV MR766 from Huh7.5 cells; assay type: cell-based, Zika virus (ZIKV); conditions: treated 2 hpi, supernatant 48 h later
[3] = system: Huh7 cells; test: XTT cytotoxicity assay in Huh7 cells; assay type: cell-based, human; conditions: 0.4 to 400 μM, 72 hours
Experimental: Cytotoxicity properties were titrated by metabolism monitoring using the XTT [2,3-bis-(2-methoxy-4-nitro-5-sulfophenyl)-2H-tetrazolium-5-carboxanilide] assay kit (Roche, Millipore Sigma), as described before ([24]). Briefly, Huh7 cells were seeded at 10 × 10^3 cells per well in 96-well plates. […] After 72 h of incubation, medium was replaced by phenol-free DMEM (Wisent) containing 0.3 mg/ml XTT, and cells were incubated for 4 h. Absorbance was measured at 450nm using a microplate spectrophotometer (Synergy H1, Biotek). Treatment conditions with 0.5% DMSO were used as the reference control. The percentage of cell viability was calculated at each concentration.

[4] = system: DENVGFP; test: DENVGFP reporter virus infection of Huh7 cells (flow cytometry / microscopy); conditions: for DENVGFP infected cells by microscopy: MOI 0.15, 72 hpi; for anti-DENV activity in screening (GFP microscopy, words): Huh7, treated 2 h before DENVGFP MOI 0.15, 72 hpi, at the chosen concentration
[5] = system: ZIKVR2A; conditions: for SI ZIKVR2A (therapeutic selectivity index): CC50/EC50, Huh7.5
[6] = system: DENVR2A; conditions: CC50/EC50, Huh7.5
[7] = system: VSV-G pseudotyped HIV-1GFP; assay type: cell-based
[8] = system: DENV2 16881s; test: Plaque assay, infectious titers of WT DENV2 16881s from Huh7.5 cells; assay type: cell-based, dengue virus (DENV); conditions: treated 2 hpi, supernatant 48 h later
Experimental: Huh7.5 cells were infected with DENV 16881s, ZIKV H/PF/2013, or ZIKV MR766 (MOI, 0.1) or left uninfected. […] Supernatants were harvested 2 days pi, and PFU were determined by plaque assay on VeroE6 cells. Cells incubated overnight (2 × 10^5 cells/well in 24-well plates) were infected with 10-fold serially diluted virus-containing supernatants for 2 h at 37°C. Inoculum was then replaced with MEM (Life Technologies) containing 1.5% carboxymethylcellulose (Millipore-Sigma). ZIKV- and DENV-infected cells were incubated for 5 and 7 days, respectively. One volume of 10% formaldehyde was added to the cells for fixation. Two hours later, cells were washed with tap water and stained with a 1% crystal violet/10% ethanol solution for 30 min. Wells were rinsed with tap water, and the number of plaques were counted to calculate virus titers.

[9] = system: DENVGFP and DENV2 16881s; test: Viral RNA levels by RT-qPCR, DENV; assay type: cell-based, dengue virus (DENV); conditions: 12 and 24 h; DENVGFP MOI 0.5 Huh7 25 μM; DENV2 16881s MOI 2 Huh7.5 50 μM
[10] = system: DENVGFP; test: Time-of-drug-addition and -removal assays, DENVGFP in Huh7 cells; assay type: cell-based, dengue virus (DENV); conditions: for infection after removal of compound 2 hpi vs continuous treatment: Huh7, treated 2 h prior to infection, removed 2 hpi, microscopy; for time of drug addition: effect on DENVGFP-infected Huh7 cells 72 hpi / time of drug removal: inhibition of DENVGFP replication: cherylline 50 μM
Experimental: For the time-of-drug-addition assay, at the time of infection, AAs were added in wells corresponding to 0 h. At 2 hpi, viral inoculum was removed from every well, and AAs were added back to wells corresponding to 0 h and 2 h. At 4, 7, 12, and 24 hpi, AAs or DMSO diluted in DMEM was added to the appropriate wells. After 72 h, cells were trypsinized and fixed in 4% formaldehyde to measure the percentage of infected cells on an FC500 MPL cytometer. Alternatively, pictures of Hoechst 33342-stained cells were acquired on an Axio Observer microscope. All assays were performed in triplicate.
At 2 hpi, plates were washed, and medium was replaced to remove remaining viruses in the supernatant. AAs were added back to all wells, except the ones corresponding to 2 h of treatment, in which fresh medium exclusive of any AA was added. Accordingly, after 4, 7, and 12 h of infection, the supernatant was replaced by fresh medium in corresponding wells. After 72 h of incubation, results were acquired as for the time-of-drug-addition assay. All assays were performed in triplicate.

[11] = Cell viability (ATP, Cell-Titer GLO) in Huh7.5 cells; assay type: cell-based; conditions: human
Experimental: Where indicated for Huh7.5 and Vero E6 cells and PBMCs, cell viability was measured by monitoring of cellular ATP levels using the Cell-Titer GLO assay kit (Promega). Briefly, 10× 10^3 to 20 × 10^3 cells in 50 to 100 μl were seeded in 48-well or 96-well plates and cultured overnight. AAs were added at the designated concentrations for 24 or 48 h, as specified in the text. Then, 50 to 100 μl of room temperature Cell-Titer GLO reagent was added in each well to room temperature-equilibrated cell plates. Plates were rocked for 2 min and rested for 10 min, and the luminescence signal was measured using a microplate spectrophotometer (Biotek Synergy H1 or Tecan Spark multimode microplate reader). Viability was expressed as a fold change calculated using the value of DMSO-treated cells at each concentration; for each AA and CC50, values were determined.

[12] = system: ZIKV H/PF/2013; test: Viral RNA levels by RT-qPCR, ZIKV; assay type: cell-based, Zika virus (ZIKV); conditions: 12 and 24 h; MOI 2, Huh7.5, 50 μM
[13] = system: DENVR2A; test: microbe, parasite or virus in culture; conditions: Dengue virus, Huh7.5, read-out: EC50 (μM) for DENVR2A
[14] = system: ZIKV H/PF/2013; test: Plaque assay, infectious titers of WT ZIKV H/PF/2013 from Huh7.5 cells; assay type: cell-based, Zika virus (ZIKV); conditions: treated 2 hpi, supernatant 48 h later
[15] = system: interferon-sensitive response element (ISRE) transcription; test: Type I IFN activation assay (ISRE-luciferase) in LL171 cells; assay type: cell-based, Murine; conditions: 50 μM, 24 h
Experimental: In vitro type I IFN activation was measured in LL171 cells using the luciferase assay system kit (Promega). Briefly, 200 μl LL171 reporter cells (L929 cells expressing an IFN stimulated response element [ISRE]-luciferase) were seeded at 1.5 × 10^4 cells/well in 96-well plates and cultured for 16 h. Medium was replaced with DMEM containing cherylline for 24 h. Supernatant was removed, cells were rinsed with PBS, and lysis buffer was added (luciferase assay reagent; Promega). Then, cells were scraped and transferred into opaque 96-well plates. LAR (luciferase assay reagent; Promega) was added to each well, and luminescence was measured at 480 nm using a microplate spectrophotometer (Synergy H1). 5,6-dimethylxanthenone-4-acetic acid (DMXAA, 20 μg/ml) was used as a positive control. All assays were performed in triplicate.

[16] = system: DENVGFP; test: DENVGFP infection of PBMCs with antibody-dependent enhancement (flow cytometry); conditions: 30 μM

With COc1cc2c(cc1O)CN(C)C[C@H]2c1ccc(O)cc1 [Cherylline, cherylline] the EC50 [1] was 20.3 µM, the “decrease in WT ZIKV MR766 replication” value ([2]; AAs 50 μM) was 8 fold and the “decrease in ZIKV MR766 viral titer” value ([2]; AAs 50 μM) was 88%. The “cytotoxic activity of AAs” value [3] was “cytotoxic”, the EC50 ([4]; Dengue virus, Huh-7, read-out: EC50, DENVGFP infection) was 8 µM and the “DENVGFP infected cells by microscopy” value ([4]; Huh7, 0.4 μM) was “no apparent difference with the control”. For the same molecule, the “DENVGFP infected cells by microscopy” value ([4]; Huh7, 2 μM) was “most of the cells were infected”, the “DENVGFP infected cells by microscopy” value ([4]; Huh7, 10 μM) was “Several foci of infected cells became visible” and the “DENVGFP infected cells by microscopy” value ([4]; Huh7, 50 μM) was “no detectable infection; also recorded: no infected cells were observed”. The “SI ZIKVR2A (therapeutic selectivity index)” value [5] was greater than 12.3, the EC50 ([5]; read-out: EC50 (μM) for ZIKVR2A, Huh7.5 cells, luciferase at 48 hpi) was 20.3 µM and the “SI DENVR2A (therapeutic selectivity index)” value [6] was greater than 28. For the same molecule, the “HIV-1 infection” value [7] was “no effect; also recorded: did not affect HIV-1 infection; also recorded: did not detect any antiretroviral activity”, the “decrease in DENV 16881s viral titers” value ([8]; 50 μM) was 17 fold and the “viral RNA levels (RT-qPCR)” value [9] was “decrease in viral RNA levels”. For the same molecule, the “infection after removal of compound 2 hpi vs continuous treatment” value (“infection … vs continuous treatment” for short) [10] was “restored virus replication completely”, the “time of drug addition: effect on DENVGFP-infected Huh7 cells 72 hpi” value (“time of drug addition: effect” below) ([10]; added at 24 hpi, NITD008 10 μM) was “lost one-third of its inhibitory potential” and the “time of drug addition: effect” value ([10]; added at 12 hpi) was “some cherylline antiviral activity was lost”. For the same molecule, the “time of drug addition: effect” value ([10]; added between 0 and 7 hpi) was “entirely blocked viral replication”, the “time of drug removal: inhibition of DENVGFP replication” value ([10]; present for the first 12 h) was “successfully impaired DENV replication” and the “time of drug removal: inhibition of DENVGFP replication” value ([10]; removed at 2, 4, or 7 hpi) was “inhibition of viral replication was lost”. For the same molecule, the CC50 at 48 h [11] was greater than 250 µM, the “viral RNA levels (RT-qPCR)” value [12] was “decrease in viral RNA levels” and the EC50 [13] was 8.8 µM. For the same molecule, the “decrease in ZIKV H/PF/2013 viral titer” value ([14]; AAs 50 μM) was 100 fold, the “type I interferon (IFN) induction, ISRE transcription” value [15] was “did not trigger a significant amount of type I interferon” and the “median GFP+ cells” value ([16]; MOI 2, 72 hpi) was 0.1%. The “decrease in the percentage of GFP+ cells” value ([16]; MOI 2, 72 h) was 5.3 fold.

With O[C@H]1C=C[C@@]23CCN(Cc4cc5c(cc42)OCO5)[C@@H]3C1 [Crinine, crinine] the “infection … vs continuous treatment” value [10] was “restored virus replication completely”.

For OC1CC2N3CCC2(c2cc4c(cc2C3)OCO4)C2OC12 (centres unmarked) [Flexinine, flexinine], the EC50 [1] was 216 µM, the “production of ZIKV MR766 infectious particles (words)” value [2] was “marginal effects on ZIKV production; also recorded: little effect” and the “anti-DENV activity in screening (GFP microscopy, words)” value [4] was “moderate”. The “SI ZIKVR2A (therapeutic selectivity index)” value [5] was greater than 1.15, the “ZIKVR2A replication” value ([5]; Huh7.5 cells) was “did not significantly impact ZIKVR2A replication” and the “SI DENVR2A (therapeutic selectivity index)” value [6] was greater than 3.9. The “production of DENV infectious particles (words)” value ([8]; AAs 50 μM) was “no effects on DENV production; also recorded: little effect”, the “infection … vs continuous treatment” value [10] was “restored virus replication completely” and the CC50 at 48 h [11] was greater than 250 µM. For the same molecule, the EC50 [13] was 63.4 µM and the “production of ZIKV H/PF/2013 infectious particles (words)” value [14] was “marginal effects on ZIKV production; also recorded: little effect”.

For COc1cc2c(cc1OC)[C@@H](c1ccc(O)cc1)CN(C)C2 [Gigantelline, gigantelline], the “anti-DENV activity in screening (GFP microscopy, words)” value [4] was “weak”.
